From US20170281508A1, “Peptides and Their Use in the Treatment of Skin” (AVON PRODUCTS, INC., priority 2014, published 2017)
Peptide text beside a SMILES is read from it.

Test system: Human dermal fibroblast cells
Assay: Pro-collagen I production in human dermal fibroblast cells (HTRF human pro-collagen I kit)
Type: cell-based
Details: peptide concentration 0.001% in DMEM media without FBS, 48 h treatment, percent change relative to vehicle control
Experimental: Human dermal fibroblast cells were grown in a 96 well plate in DMEM media (available from Corning, N.Y.) supplemented with 10% Fetal Bovine Serum (FBS) and L-glutamine (0.07×10^5 cells/plate). After reaching about 75% confluence, cells were transferred into DMEM media without FBS and incubated for 4-6 hours. Next, cells were treated with peptide of Formula I at 0.00001%, 0.0001%, 0.001% final concentration in DMEM media without FBS for 48 h. After treatment the media were collected, and cell viability was measured using MTT. The amount of secreted collagen was tested in the media using HTRF human pro-collagen I kit (Cisbio Inc, Bedford, Mass.).
Results are summarized in Table 1 below as percent change of pro-collagen I production relative to vehicle control: […]

## CCC(C)C(NC(=O)C(N)CCC(N)=O)C(=O)NC(CC(C)C)C(=O)NC(CO)C(=O)NC(CCCCN)C(=O)NC(CC(C)C)C(=O)NC(CCCNC(=N)N)C(=O)NC(CC(C)C)C(=O)O (stereo not drawn) [QILSKLRL (SEQ ID NO: 1), Gln-Ile-Leu-Ser-Lys-Leu-Arg-Leu] (H-QILSKLRL-OH; configuration not given here)
  Increase in Pro-Collagen I Production: +10-30%
Listed as peptide of Formula I
  Increase in Pro-Collagen I Production: 10-30%
